The test system of one test is NSP13 E319A. It is filed as biochemical, SARS-CoV-2.
The next test concerns NSP13 E375A. It is filed as biochemical, SARS-CoV-2.

As to `O=C1O[C@@H]2[C@@H](OC(=O)c3cc(O)c(O)c(O)c3-c3c1cc(O)c(O)c3O)[C@H](O)O[C@@H]1COC(=O)c3cc(O)c(O)c(O)c3-c3c(O)c(O)c4oc(=O)c5c(c(O)c(O)c6oc(=O)c3c4c65)-c3c(cc(O)c(O)c3O)C(=O)O[C@@H]21` [Punicalagin, 2,3-hexahydroxydiphenoyl-gallagyl-D-glucose], the “reduction of the inhibitory potency compared to wild type” value with NSP13 E319A and in the test on NSP13 E375A was “about 2 fold” throughout.

These data come from publication PMC9381947 (Antiviral Research, 2022).
